Data as given in ChEMBL document CHEMBL1134130, “Carbonic anhydrase inhibitors: 4-sulfamoyl-benzenecarboxamides and 4-chloro-3-sulfamoyl-benzenecarboxamides with strong topical antiglaucoma properties” (Bioorg Med Chem Lett, 2001).
pKi: −log10 of the molar value.

Assays:
Oryctolagus cuniculus [1] = test: In vivo intraocular pressure (IOP) lowering at 60 min in normotensive rabbits after treatment with one drop (50 uL) 2% solution of CA inhibitor directly into the eye, at 7.0 pH; type: functional
Oryctolagus cuniculus [2] = test: In vivo intraocular pressure (IOP) lowering at 0 min in normotensive rabbits after treatment with one drop (50 uL) 2% solution of CA inhibitor directly into the eye, at 7.5 pH; type: functional
Carbonic anhydrase 2 = Carbonic anhydrase 2 (Homo sapiens, UniProt P00918)
Description: Binding affinity against human carbonic anhydrase II (hCA -II)

Carbonic anhydrase 4 = target: T1, Carbonic anhydrase 4 (Bos taurus, UniProt Q95323)
T1 sequence (Q95323 whole entry): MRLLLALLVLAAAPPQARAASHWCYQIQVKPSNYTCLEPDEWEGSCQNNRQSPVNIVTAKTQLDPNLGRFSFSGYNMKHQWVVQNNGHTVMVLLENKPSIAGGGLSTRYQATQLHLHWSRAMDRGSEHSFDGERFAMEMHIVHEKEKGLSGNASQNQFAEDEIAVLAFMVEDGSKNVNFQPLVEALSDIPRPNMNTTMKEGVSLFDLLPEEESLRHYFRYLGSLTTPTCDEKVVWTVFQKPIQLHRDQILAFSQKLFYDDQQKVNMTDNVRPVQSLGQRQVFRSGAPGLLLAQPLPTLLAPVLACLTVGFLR
Description: Compound was evaluated for binding affinity against bovine carbonic anhydrase IV (bCA IV)

Carbonic anhydrase 1 = Carbonic anhydrase 1 (Homo sapiens, UniProt P00915)
Sequence of Carbonic anhydrase 1 (P00915 whole entry): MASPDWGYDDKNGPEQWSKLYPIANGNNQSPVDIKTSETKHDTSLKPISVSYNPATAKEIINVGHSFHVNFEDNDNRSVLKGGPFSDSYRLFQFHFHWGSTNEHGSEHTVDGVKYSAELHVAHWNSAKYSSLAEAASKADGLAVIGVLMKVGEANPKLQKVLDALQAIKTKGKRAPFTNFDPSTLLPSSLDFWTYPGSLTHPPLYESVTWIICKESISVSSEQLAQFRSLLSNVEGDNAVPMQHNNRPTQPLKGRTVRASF
Description: Binding affinity against human carbonic anhydrase I (hCA I)

Oryctolagus cuniculus [3] = species: Oryctolagus cuniculus
Description: In vivo intraocular pressure (IOP) lowering at 90 min in normotensive rabbits after treatment with one drop (50 uL) 2% solution of CA inhibitor directly into the eye, at 7.0 pH

Oryctolagus cuniculus [4] = species: Oryctolagus cuniculus; remark: listed apart in the source
Description: In vivo intraocular pressure (IOP) lowering at 120 min in normotensive rabbits after treatment with one drop (50 uL) 2% solution of CA inhibitor directly into the eye, at 7.0 pH

Oryctolagus cuniculus [5] = species: Oryctolagus cuniculus; remark: listed apart in the source
Description: In vivo intraocular pressure (IOP) lowering at 30 min in normotensive rabbits after treatment with one drop (50 uL) 2% solution of CA inhibitor directly into the eye, at 7.0 pH

[6] = Compound was evaluated for in vitro corneal permeability in cornea intact; type: ADME, tissue-based
[7] = Compound was evaluated for in vitro corneal permeability in no epithelium; type: ADME, tissue-based, Cornea
Oryctolagus cuniculus [8] = test: In vivo intraocular pressure (IOP) lowering at 0 min in normotensive rabbits after treatment with one drop (50 uL) 2% solution of CA inhibitor directly into the eye, at 7.0 pH; type: functional
Oryctolagus cuniculus [9] = species: Oryctolagus cuniculus; remark: listed apart in the source
physchem = details: octanol/water
Description: Partition coefficient (logP)

Oryctolagus cuniculus [10] = test: In vivo intraocular pressure (IOP) lowering at 60 min in normotensive rabbits after treatment with one drop (50 uL) 2% solution of CA inhibitor directly into the eye, at 7.5 pH; type: functional
Oryctolagus cuniculus [11] = test: In vivo intraocular pressure (IOP) lowering at 90 min in normotensive rabbits after treatment with one drop (50 uL) 2% solution of CA inhibitor directly into the eye, at 7.5 pH; type: functional
Oryctolagus cuniculus [12] = test: In vivo intraocular pressure (IOP) lowering at 120 min in normotensive rabbits after treatment with one drop (50 uL) 2% solution of CA inhibitor directly into the eye, at 7.5 pH; type: functional
Oryctolagus cuniculus [13] = test: In vivo intraocular pressure (IOP) lowering at 30 min in normotensive rabbits after treatment with one drop (50 uL) 2% solution of CA inhibitor directly into the eye, at 7.5 pH; type: functional
Oryctolagus cuniculus [14] = species: Oryctolagus cuniculus; remark: listed apart in the source
Description: Fall of in vivo intraocular pressure (IOP) of glaucomatous rabbits at 0 min after treatment with one drop (50 uL) solution of 2% of CA inhibitor directly into eye

Oryctolagus cuniculus [15] = species: Oryctolagus cuniculus; remark: listed apart in the source
Description: Fall of in vivo intraocular pressure (IOP) of glaucomatous rabbits at 120 min after treatment with one drop (50 uL) solution of 2% of CA inhibitor directly into eye

Oryctolagus cuniculus [16] = species: Oryctolagus cuniculus; remark: listed apart in the source
Description: Fall of in vivo intraocular pressure (IOP) of glaucomatous rabbits at 30 min after treatment with one drop (50 uL) solution of 2% of CA inhibitor directly into eye

Oryctolagus cuniculus [17] = species: Oryctolagus cuniculus; remark: listed apart in the source
Description: Fall of in vivo intraocular pressure (IOP) of glaucomatous rabbits at 60 min after treatment with one drop (50 uL) solution of 2% of CA inhibitor directly into eye

Oryctolagus cuniculus [18] = species: Oryctolagus cuniculus; remark: listed apart in the source
Description: Fall of in vivo intraocular pressure (IOP) of glaucomatous rabbits at 90 min after treatment with one drop (50 uL) solution of 2% of CA inhibitor directly into eye

| pKi (Carbonic anhydrase 2) | pKi (Carbonic anhydrase 4) | pKi (Carbonic anhydrase 1) | Km x10e3 [6] | Km x10e3 [7] | logP (physchem) | SMILES | Delta IOP (Oryctolagus cuniculus [2]) | Delta IOP (Oryctolagus cuniculus [3]) | Delta IOP (Oryctolagus cuniculus [4]) | Delta IOP (Oryctolagus cuniculus [5]) | further results |
| --- | --- | --- | --- | --- | --- | --- | --- | --- | --- | --- | --- |
| 8.30 | 7.85 | 7.42 |  |  |  | NS(=O)(=O)c1ccc(C(=O)Nc2nnc(S)s2)cc1 | 0 mmHg | 3.1 mmHg | 2.1 mmHg | 7 mmHg | Delta IOP (Oryctolagus cuniculus [1]): 5 mmHg |
| 8.05 | 7.80 | 6.40 | 3.3 hr-1 | 6.4 hr-1 | 1.82 | CC(C)C[C@H](NC(=O)c1ccc(S(N)(=O)=O)cc1)C(=O)NCC(=O)O |  | 7.8 mmHg | 8.7 mmHg | 3.3 mmHg | Delta IOP (Oryctolagus cuniculus [8]): 0 mmHg; Delta IOP (Oryctolagus cuniculus [9]): 5.2 mmHg |
| 8.00 | 7.66 | 7.89 | 3.1 hr-1 | 7 hr-1 | 1.89 | NS(=O)(=O)c1nnc(NC(=O)c2ccc(Cl)c(S(N)(=O)=O)c2)s1 | 0 mmHg |  |  |  | Delta IOP (Oryctolagus cuniculus [10]): 7.1 mmHg; Delta IOP (Oryctolagus cuniculus [11]): 8.3 mmHg; Delta IOP (Oryctolagus cuniculus [12]): 7.5 mmHg; Delta IOP (Oryctolagus cuniculus [13]): 2.5 mmHg; Delta IOP (Oryctolagus cuniculus [14]): 0 mmHg; Delta IOP (Oryctolagus cuniculus [15]): 13.3 mmHg; Delta IOP (Oryctolagus cuniculus [16]): 6.4 mmHg; Delta IOP (Oryctolagus cuniculus [17]): 13 mmHg; Delta IOP (Oryctolagus cuniculus [18]): 14.2 mmHg |
